The values that follow come from paper PMC9739180, “Discovery of a Flavonoid FM04 as a Potent Inhibitor to Reverse P-Glycoprotein-Mediated Drug Resistance in Xenografts and Improve Oral Bioavailability of Paclitaxel” (International Journal of Molecular Sciences, 2022).

The IC50 is the concentration that gives 50% inhibition. A higher IC50 goes with weaker potency.

SMILES strings stand for the structures.

Common to all, as to format: cell-based
Series [1] is described as follows: Cytotoxicity assay (MTS, 3 days), LCC6. Conditions: human, LCC6 cells. As for the experimental part: (§1) To each well of 96-well plate, 10,000 cells of LCC6, LCC6MDR or L929 were incubated with different concentrations of FM04 (0, 0.4, 1.2, 3.7, 11, 33 and 100 μM). The final volume in each well of 96-well plate was 100 μL and the plate was incubated for 3 days at 37 °C. The cell viability was determined using MTS assay as reported previously.

Series [2] is described as follows: Cytotoxicity assay (MTS, 3 days), L929. The note with it: L929 fibroblast cells; mouse fibroblast cell line. Here is the method:
as §1

The target of the next series is T1, BCRP (Homo sapiens, UniProt Q9UNQ0).
T1 construct: expressed in transfected cells; host or cells: HEK293/R2
T1 sequence (Q9UNQ0 1-655): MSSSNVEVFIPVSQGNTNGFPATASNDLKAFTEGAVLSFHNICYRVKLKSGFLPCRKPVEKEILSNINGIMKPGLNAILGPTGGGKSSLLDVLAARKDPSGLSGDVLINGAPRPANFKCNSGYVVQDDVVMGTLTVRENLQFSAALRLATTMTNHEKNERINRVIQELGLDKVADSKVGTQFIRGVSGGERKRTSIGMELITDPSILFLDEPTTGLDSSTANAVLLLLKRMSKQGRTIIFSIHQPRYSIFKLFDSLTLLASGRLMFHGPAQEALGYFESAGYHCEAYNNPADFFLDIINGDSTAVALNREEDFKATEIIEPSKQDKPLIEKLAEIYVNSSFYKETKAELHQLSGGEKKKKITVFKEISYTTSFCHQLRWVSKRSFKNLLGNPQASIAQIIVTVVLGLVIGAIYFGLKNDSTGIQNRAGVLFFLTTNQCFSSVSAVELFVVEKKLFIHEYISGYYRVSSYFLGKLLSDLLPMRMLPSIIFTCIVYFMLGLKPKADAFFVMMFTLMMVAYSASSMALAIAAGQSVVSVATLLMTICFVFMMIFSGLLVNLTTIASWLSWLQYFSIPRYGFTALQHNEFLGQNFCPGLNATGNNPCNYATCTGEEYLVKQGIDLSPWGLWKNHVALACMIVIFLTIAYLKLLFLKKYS
The experiment in a line: BCRP-modulating activity in HEK293/R2 cells (MTS). Conditions: 1 μM, HEK293/R2. As for the experimental part: The final volume in each well of the 96-well plate was 200 μL. The plate was then incubated for 5 days at 37 °C. The cell viability was determined using an MTS assay as reported previously.

Turning to `O=c1cc(-c2ccc(OCCOCCNCc3ccccc3)cc2)oc2ccccc12` [FM04, 2-(4-(2-(2-(benzylamino)ethoxy)ethoxy)phenyl)-4H-chromen-4-one], the IC50 at 3 days in series [1] was determined as 10.3 ± 0.2 µM; in series [2], 33 µM. Besides, the “reversal of BCRP-mediated topotecan resistance” value at BCRP is on record as “did not reverse BCRP-mediated topotecan resistance”.
